Data taken from ChEMBL document CHEMBL1697781, “Assessment of the health effects of chemicals in humans: II. Construction of an adverse effects database for QSAR modeling” (Curr Drug Discov Technol, 2004).

Tests used:
Details in all cases: human; call rule not given here
Hepatotoxicity [1] = assay: FDA HLAED, lactate dehydrogenase (LDH) increase
Hepatotoxicity [2] = assay: FDA HLAED, liver enzyme composite activity
Hepatotoxicity [3] = assay: FDA HLAED, gamma-glutamyl transferase (GGT) increase
Hepatotoxicity [4] = assay: FDA HLAED, serum glutamic oxaloacetic transaminase (SGOT) increase
Hepatotoxicity [5] = assay: FDA HLAED, alkaline phosphatase increase
Hepatotoxicity [6] = assay: FDA HLAED, serum glutamic pyruvic transaminase (SGPT) increase
For GGT Increase - Index Value in this document: reference of the scale not given here.
For LDH Increase - Index Value in this document: reference of the scale not given here.

Compound | LDH Increase - Activity Score (Hepatotoxicity [1]) | LDH Increase - Index Value (Hepatotoxicity [1]) | LDH Increase - Number of Reports (Hepatotoxicity [1]) | Composite Activity - Active (Hepatotoxicity [2]) | Composite Activity - Marginal (Hepatotoxicity [2]) | Composite Activity - Score (Hepatotoxicity [2]) | GGT Increase - Activity Score (Hepatotoxicity [3]) | GGT Increase - Index Value (Hepatotoxicity [3]) | GGT Increase - Number of Reports (Hepatotoxicity [3]) | SGOT Increase - Activity Score (Hepatotoxicity [4]) | SGOT Increase - Index Value (Hepatotoxicity [4]) | SGOT Increase - Number of Reports (Hepatotoxicity [4]) | Alkaline Phosphatase Increase - Activity Score (Hepatotoxicity [5]) | Alkaline Phosphatase Increase - Index Value (Hepatotoxicity [5]) | Alkaline Phosphatase Increase - Number of Reports (Hepatotoxicity [5]) | SGPT Increase - Activity Score (Hepatotoxicity [6]) | SGPT Increase - Index Value (Hepatotoxicity [6]) | SGPT Increase - Number of Reports (Hepatotoxicity [6]) | Composite Activity - Active (Hepatotoxicity [2]; Liver) | Composite Activity - Marginal (Hepatotoxicity [2]; Liver) | further results
Clc1ccc2c(c1)C(N1CCNCC1)=Nc1ccccc1O2 [AMOXAPINE] | Inactive | 0.7 | < 4 | 0 | 0 | Inactive | Inactive | 0 | < 4 | Inactive | 1 | < 4 | Inactive | 0.7 | < 4 | Inactive | 0.7 | < 4 | – | – | –
CO[C@H]1/C=C/O[C@@]2(C)Oc3c(C)c(O)c4c(c3C2=O)C2=NC3(CCN(CC(C)C)CC3)NC2=C(NC(=O)/C(C)=C\C=C\[C@H](C)[C@H](O)[C@@H](C)[C@@H](O)[C@@H](C)[C@H](OC(C)=O)[C@@H]1C)C4=O [RIFABUTIN] | Inactive | 5.3 | < 4 | – | – | – | Active | 18.5 | >= 4 | Active | 31.8 | >= 4 | Active | 15.9 | >= 4 | Active | 31.8 | >= 4 | 4 | 0 | Composite Activity - Score (Hepatotoxicity [2]; Liver): Active
COc1ccc2[nH]c([S+]([O-])Cc3ncc(C)c(OC)c3C)nc2c1 (stereo not given) [OMEPRAZOLE] | Inactive | 0.5 | >= 4 | 0 | 0 | Inactive | Inactive | 0.8 | >= 4 | Inactive | 1.2 | >= 4 | Inactive | 1.8 | >= 4 | Inactive | 0.9 | >= 4 | – | – | –
CCCNCC(O)COc1ccccc1C(=O)CCc1ccccc1 (stereo not given) [PROPAFENONE] | Inactive | 1.9 | < 4 | – | – | – | Inactive | 2.9 | < 4 | Active | 5.7 | >= 4 | Active | 7.6 | >= 4 | Active | 4.7 | >= 4 | 3 | 0 | Composite Activity - Score (Hepatotoxicity [2]; Liver): Active
C[C@@H]1C[C@H]2[C@@H]3C[C@H](F)C4=CC(=O)C=C[C@]4(C)[C@@]3(F)[C@@H](O)C[C@]2(C)[C@@]1(O)C(=O)SCF [FLUTICASONE] | Inactive | 0 | < 4 | 0 | 0 | Inactive | Inactive | 0 | < 4 | Inactive | 0.8 | < 4 | Inactive | 0 | < 4 | Inactive | 0.8 | < 4 | – | – | –
